Reference: patent US20130196996A1, “USE OF ISOXAZOLINE COMPOUNDS AND COMPOSITIONS IN BLADDER CANCER” (CPSI STOCKHOLDER TRUST, priority 2010, published 2013)
Where “and” joins values, the source holds several entries; their conditions need not be identical. Identical values can stand only once.

Experiments:
[1] = test system: BBN model of bladder cancer; assay: BBN model of bladder cancer, Experiment 1: bladder weight and pathology after oral gavage; type: in vivo, C57Bl/6 mice; settings: for average bladder weight: Experiment 1, 25 mg/kg gavage weeks 16-22, control 0.5±0.5 gm; for mean of tissue involved with invasive disease (tumor burden) / upper tract obstruction (hydro-ureteronephrosis) at euthanasia: Experiment 1, 25 mg/kg gavage; for mean of tissue involved with invasive disease (tumor burden): SD ±30% (2705), ±32% (1306), control 81%; for upper tract obstruction (hydro-ureteronephrosis) at euthanasia: majority of control animals obstructed; for mean percentage of tumors representing invasive disease (FIG. 4E) / representative bladder tumor stage on H&E pathology: Experiment 1, 25 mg/kg; for mean percentage of tumors representing invasive disease (FIG. 4E): in words; for representative bladder tumor stage on H&E pathology: vehicle group infiltrative pT3 cancer; for Pieces involved / Pieces involved, in situ % / Pieces involved, inv % (invasive) / Squamous met and normal: Table 1, individual animal bladders, 25 mg/kg gavage weeks 16-22, 25 mg/kg
Procedure: (§1) Three-month old C57Bl/6 mice were purchased from Jackson Laboratories (Bar Harbor, Me.) and Charles River (Wilmington, Mass.). The animals were maintained at the University of Connecticut Center for Laboratory Animal Care under National Institutes of Health guidelines. All procedures were approved by an institutional animal care committee. The mice were housed in a controlled environment with a 12 hour light-12 hour dark cycle and provided food and water ad libitum.
(§2) All animals received BBN(N-butyl-N-(4-hydroxybutyl)-nitrosamine, TCI America, Portland, Oreg.) 0.05% in water in brown bottles for 22 weeks. BBN is known to induce cancer in the bladder. Mice were treated with either the CPSI compounds or vehicle for weeks 16-22. Timing of dosing was intended to correspond with the timeframe of tumor progression from CIS to invasive disease, as determined in prior experiments.
(§3) Thirty 3-month old male mice (n=10/group) were gavage fed either vehicle (PEG 300, methylcellulose) (control group), CPSI-2705, or CPSI-1306 at 25 mg/kg for weeks 16-22.
(§4) Animals were inspected daily for general health with weights recorded at least biweekly and more frequently in the last several weeks based on recorded weight loss. Animals were euthanized by CO2 inhalation and cervical dislocation. Bladders were harvested, weighed, placed in PBS/formaldehyde for 24 hours and then transferred to PBS. Upper tracts (kidney and ureters) were inspected for hydronephrosis. Bladders were assessed for tumor stage and grade and amount of pathologic involvement with invasive disease. Bladders were sectioned in the mid-sagital plane, laid flat on the medial surface and step sectioned for whole mount pathologic analysis. Haematoxylin and eosin (H&E) staining was carried out to assess for histology and pathology. Bladders were step sectioned, embedded in paraffin, serially sectioned and stained with H&E and assessed for tumor stage and grade and amount of pathologic involvement with invasive disease. A single pathologist reviewed all slides in a blinded manner to provide a pathological diagnosis. As a tumor develops in the bladder, the size and weight of the bladder increases. Bladder weight is therefore a useful surrogate for bladder tumor burden, representing the relative amount of bladder tumor that develops during continual exposure to the carcinogen, BBN.
(§5) Values shown are means±SEM. […] Statistical analysis was performed using SPSS® version 2.03 (San Rafael, Calif.). Differences were examined by one-way analysis of variance (ANOVA) followed by the post-hoc Dunnett's test.

[2] = test system: BBN model of bladder cancer; assay: BBN model of bladder cancer, Experiment 2: escalating dose of CPSI-1306; type: in vivo, C57Bl/6 mice; settings: for mean bladder weights at euthanasia as surrogate for tumor volume, effect vs vehicle: p<0.05 Dunnett post-hoc
Procedure: as §1, §2
Sixty 3-month old male mice (n=˜8/group) were gavage fed an escalating dose of CPSI-1306 (0.001, 0.01, 0.1, 1.0, 10 or 25 mg/kg) or vehicle (PEG 400, H2O) for weeks 16-22.
as §4, §5

[3] = Body weight, general health and survival of BBN mice, Experiment 1; type: in vivo
Procedure: as §2, §3
Animals were inspected daily for general health with weights recorded at least biweekly and more frequently in the last several weeks based on recorded weight loss. Animals were euthanized by CO2 inhalation and cervical dislocation. Bladders were harvested, weighed, placed in PBS/formaldehyde for 24 hours and then transferred to PBS. Upper tracts (kidney and ureters) were inspected for hydronephrosis. Bladders were assessed for tumor stage and grade and amount of pathologic involvement with invasive disease. […] Bladders were step sectioned, embedded in paraffin, serially sectioned and stained with H&E and assessed for tumor stage and grade and amount of pathologic involvement with invasive disease. […]

[4] = Experiment 2, dose escalation, in words

| Compound | average bladder weight [1] [gm] | mean of tissue involved with invasive disease (tumor burden) [1] [%] | upper tract obstruction (hydro-ureteronephrosis) at euthanasia [1] | mean percentage of tumors representing invasive disease (FIG. 4E) [1] | representative bladder tumor stage on H&E pathology [1] | mean bladder weight, fold less than control group ([1]; Experiment 1, FIG. 1, p=0.06) [fold] | Pieces involved [1] | Pieces involved, in situ % [1] | Pieces involved, inv % (invasive) [1] | Squamous met and normal [1] | mean bladder weights at euthanasia as surrogate for tumor volume, effect vs vehicle ([2]; Experiment 2, 0.1 mg/kg gavage weeks 16-22) | mean bladder weights at euthanasia as surrogate for tumor volume, effect vs vehicle ([2]; Experiment 2, 1.0 mg/kg gavage weeks 16-22) | mean percentage of tumor representing invasive disease (FIG. 5B) [2, 4] | percentage of bladders in each dosing group with each pathologic stage (FIG. 5A) [2, 4] | general health appearance during drug treatment ([3]; Experiment 1, 25 mg/kg gavage, compared to the other two treatment arms) | animals died prior to completion of the study ([3]; Experiment 1, n=10/group, 25 mg/kg gavage, control also two) |
| --- | --- | --- | --- | --- | --- | --- | --- | --- | --- | --- | --- | --- | --- | --- | --- | --- |
| O=C(C[C@H]1CC(c2ccc(F)cc2F)=NO1)N1CCOCC1 [CPSI-1306] | 0.2±0.2 | 59 | none seen | Smaller tumors with a smaller percentage of invasiveness | focal pT3 with areas of normal mucosa | 2.5 | 4 (6×) and 2 and 7 and 6 and 3 − inv, 1 − in situ | 5% (2×) and (15 + 15%) and 10% (2×) and 15% | 25% and (15 + 15%) and (20%) and (90%) (2×) and (95%) and 35% and 70% and 80% and 65% | 70% (2×) and 80% and 10% (3×) and <5% and 55% and 25% and 20% | significant effect | significant effect | Smaller tumors with a smaller percentage of invasiveness | A decrease in the percentage of higher stage tumors | appeared healthier |  |
| CN(C(=O)C[C@H]1CC(c2ccc(Cl)cc2)=NO1)C1CCCCC1 [CPSI-2705] | 0.3±0.3 | 62 | Fewer animals were noted to have obstruction | Smaller tumors with a smaller percentage of invasiveness | pT1 disease |  | 8 (3×) and 2 (2×) and 6 and 4 (2×) and 1 − inv, 3 − in situ and 10 | 10% (2×) and 5% (2×) and 20% | 80% and 85% and (60%) and (70%) and 60% and (30%) and 10% and 30% and (95%) (2×) | 10% (2×) and 40% and 30% (2×) and 70% (2×) and 65% and <5% (2×) |  |  |  |  |  | Two |
